Four compounds from patent US20010018065A1, “Compounds and methods for the treatment of bacterial dysentery using antibiotics and toxin binding oligosaccharide compositions” (priority 1998, published 2001) can be followed below.

Converted amounts (≈) assume the structure as drawn.

The test relates to E. coli ATCC 25922. In words: Minimum inhibitory concentration (NCCLS M7-A2) for reference strain. To be noted: reference strain ATCC #25922; for MIC: Escherichia coli, ATCC25922. The test is classed as cell-based.

Turning to `CO[C@@]12[C@H](COC(N)=O)C3=C(C(=O)C(C)=C(N)C3=O)N1C[C@@H]1N[C@@H]12` [Mitomycin-C], the “Minimum Inhibitory Concentration” value was 9.6 µg/mL.

One may read the MIC as the smallest concentration in the dilution series that meets the test's criterion for growth inhibition. The low end stands for inhibition by little substance, the high end for a need for much substance. Compound `C=CC1=C(C(=O)O)N2C(=O)[C@@H](NC(=O)/C(=N\OCC(=O)O)c3csc(N)n3)[C@H]2SC1` [Cefixime] displayed an MIC of 0.96 µg/mL (≈ 2.12 µM).

With `CN(C)[C@@H]1C(O)=C(C(N)=O)C(=O)[C@@]2(O)C(O)=C3C(=O)c4c(O)cccc4[C@@](C)(O)[C@H]3C[C@@H]12` [Tetracycline], the lowest concentration to inhibit growth (MIC) was 1.92 µg/mL (≈ 4.32 µM).

With `O=C(O)c1cn(C2CC2)c2cc(N3CCNCC3)c(F)cc2c1=O` [Ciprofloxacin], it took 0.0384 µg/mL (≈ 0.116 µM) to inhibit growth (MIC).
